According to PMC6366416, “Synthesis and in vitro anticancer activity of certain novel 1-(2-methyl-6-arylpyridin-3-yl)-3-phenylureas as apoptosis-inducing agents” (Journal of Enzyme Inhibition and Medicinal Chemistry, 2019):

Tests used:
[1] = tested on: A549 cell line; experiment: MTT anti-proliferative assay; assay type: cell-based; details: Homo sapiens, 48 h of incubation, mean ± SD of three experiments
Procedure: (§1) A549 (non-small cell lung cancer cell line) and HCT-116 (human colon cancer cell line), were obtained from American Type Culture Collection (Manassas, VA, USA). The cells were maintained in Dulbecco’s Modified Eagle’s Medium (DMEM) (Sigma-Aldrich, St. Louis, MO), and supplemented with 10% heat-inactivated FBS (Hyclone), 10 μg/mL of insulin (Manufacturer, Sigma, St. Louis, MO, USA), and 1% penicillin-streptomycin. MTT assay[29] was adopted to assess the in vitro antitumor activity of the newly synthesized pyridines 5a–l according to the reported procedures, using Doxorubicin as a standard treatment. Experimental conditions were tested using three replicates (three wells of the 96-well plate per experimental condition) and all experiments were carried out in triplicates. IC50 values were calculated by the use of the equation for Boltzman sigmoidal concentration–response curve using the nonlinear regression fitting models by Graph Pad, Prism version 5 (GraphPad Software Inc., La Jolla, CA).
(§2) All newly synthesized pyridines 5a–l were examined for their anti-proliferative activity towards two cancer cell lines: non-small cell lung cancer A549 cell line and colon cancer HCT-116 cell line. The MTT colorimetric assay was adopted to assess the anti-proliferative activity as described by Mosmann[29]. Doxorubicin was used as a control in this assay.

[2] = tested on: HCT-116 cell line; experiment: MTT anti-proliferative assay; assay type: cell-based; details: Homo sapiens, 48 h of incubation, mean ± SD of three experiments
Procedure: as §1, §2

[3] = tested on: WI-38 cell line; experiment: MTT cytotoxicity towards non-tumorigenic cells; assay type: cell-based, human; details: for IC50: WI-38, MTT, non-tumorigenic human lung fibroblast, mean ± SD of three experiments; for S. I. WI-38/A549: selectivity index, IC50 WI-38 / IC50 A549
Procedure: The cytotoxic activity of all synthesized pyridines 5a–l were assessed against non-tumorigenic human lung fibroblast WI-38 cell line to investigate their safety, using the MTT colorimetric assay.

| melting point [°C] | IC50 [1] [µM] | IC50 [2] [µM] | Compound | IC50 [3] [µM] | S. I. WI-38/A549 [3] |
| --- | --- | --- | --- | --- | --- |
| 235 to 237 | 24.1 ± 1.78 | 16 ± 1.52 | Cc1nc(-c2ccc(F)cc2)ccc1NC(=O)Nc1cc(C(F)(F)F)cc(C(F)(F)F)c1 [Compound 5b, 1-(3,5-Bis(trifluoromethyl)phenyl)-3-(6-(4-fluorophenyl)-2-methylpyridin-3-yl)urea] | 151 ± 8.12 | 6.3 |
|  | 2.93 ± 0.28 | 3.1 ± 0.22 | COc1cccc2c1C(=O)c1c(O)c3c(c(O)c1C2=O)C[C@@](O)(C(=O)CO)C[C@@H]3O[C@H]1C[C@H](N)[C@H](O)[C@H](C)O1 [Doxorubicin, reference compound] |  |  |
| 239 to 241 | 19.2 ± 2.05 | 16.4 ± 1.3 | Cc1nc(-c2cccs2)ccc1NC(=O)Nc1ccc2c(c1)OCO2 [Compound 5k, 1-(Benzo[d][1, 3]dioxol-5-yl)-3-(2-methyl-6-(thiophen-2-yl)pyridin-3-yl)urea] | 139 ± 10.4 | 7.2 |
